In the assay the target is PIK3CA (human) (UniProt P42336). Briefly: Assessment of PIK3CA Kinase Activity.
Sequence of PIK3CA (human) (P42336 whole entry, looked up): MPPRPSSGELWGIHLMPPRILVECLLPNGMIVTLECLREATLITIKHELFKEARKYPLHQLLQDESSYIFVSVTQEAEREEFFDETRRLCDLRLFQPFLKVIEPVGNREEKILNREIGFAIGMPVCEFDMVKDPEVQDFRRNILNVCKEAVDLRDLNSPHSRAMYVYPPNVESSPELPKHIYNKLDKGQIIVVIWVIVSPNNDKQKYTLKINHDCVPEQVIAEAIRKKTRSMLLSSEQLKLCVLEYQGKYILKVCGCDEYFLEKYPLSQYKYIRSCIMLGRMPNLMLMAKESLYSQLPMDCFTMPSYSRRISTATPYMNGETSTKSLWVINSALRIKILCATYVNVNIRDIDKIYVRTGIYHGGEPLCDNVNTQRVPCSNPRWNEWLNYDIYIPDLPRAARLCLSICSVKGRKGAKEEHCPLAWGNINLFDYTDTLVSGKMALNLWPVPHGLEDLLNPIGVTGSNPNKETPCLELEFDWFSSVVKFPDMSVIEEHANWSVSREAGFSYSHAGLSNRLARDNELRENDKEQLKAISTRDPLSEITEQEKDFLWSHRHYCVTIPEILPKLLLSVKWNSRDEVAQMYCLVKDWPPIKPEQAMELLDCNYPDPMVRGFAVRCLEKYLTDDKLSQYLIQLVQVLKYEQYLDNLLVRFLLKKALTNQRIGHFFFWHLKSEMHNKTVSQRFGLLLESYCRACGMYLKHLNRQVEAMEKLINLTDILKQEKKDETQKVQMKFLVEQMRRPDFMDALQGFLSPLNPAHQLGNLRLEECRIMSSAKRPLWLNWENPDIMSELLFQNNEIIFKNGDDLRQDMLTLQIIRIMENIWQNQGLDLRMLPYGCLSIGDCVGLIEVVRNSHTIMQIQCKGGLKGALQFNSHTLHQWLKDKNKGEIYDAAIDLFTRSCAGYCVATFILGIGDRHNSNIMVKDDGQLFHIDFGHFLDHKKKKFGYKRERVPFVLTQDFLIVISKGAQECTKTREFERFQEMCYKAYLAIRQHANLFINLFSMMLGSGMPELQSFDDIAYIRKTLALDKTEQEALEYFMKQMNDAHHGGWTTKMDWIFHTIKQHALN

Consider `Cc1cc(-c2ccc(-c3ncc[nH]3)cc2)cc2c1OCCN(c1nc(N)nc(C)c1C(C)C)C2`, for which the half-maximal inhibitory concentration (IC50) lay within 100 to 500 nM.

As to `Cc1cc(-c2cncnc2)cc2c1OCCN(c1nc(N)nc(C)c1C(C)C)C2`, the half-inhibitory concentration (IC50) fell in the range of 100 to 500 nM.

Compound `Cc1cc(-c2cnc(Cl)c(NS(C)(=O)=O)c2)cc2c1OCCN(c1nc(C(N)=O)nc(C)c1C(C)C)C2` gave an IC50 of at most 100 nM.

For the compound `Cc1nc(C)c(C(C)C)c(N2CCOc3c(C)cc(-c4nnc(N)s4)cc3C2)n1`, the concentration for half-maximal inhibition (IC50) was at most 100 nM.

Take `CNc1ncnc(N2CCOc3c(C)cc(-c4cnc5sc(N)nc5c4)cc3C2)c1[N+](=O)[O-]`: the IC50 lay within 100 to 500 nM.

Compound `Cc1cc(-c2nnc(N)s2)cc2c1OCCN(c1ncncc1C(C)C)C2` had an IC50 of at most 100 nM.

`COc1ccc(-c2cc(C)c3c(c2)CN(c2nc(N)nc(C)c2C(C)C)CCO3)cn1` registered an IC50 of at most 100 nM.

The compound `COCCOc1nc(C)c(C(C)C)c(N2CCOc3c(C)cc(-c4cnc5sc(N)nc5c4)cc3C2)n1` returned an IC50 of at most 100 nM.

With `Cc1cc(-c2cnc3sc(N)nc3c2)cc2c1OCCN(c1nc(CN(C)CCF)nc(C)c1C(C)C)C2`, the 50% inhibitory concentration (IC50) was at most 100 nM.

For the compound `Cc1ncc(-c2cc(C)c3c(c2)CN(c2nc(N)nc(C)c2C(C)C)CCO3)s1`, the half-maximal inhibitory concentration (IC50) is 100 to 500 nM.

With `Cc1cc(-c2cnc3nc[nH]c3c2)cc2c1OCCN(c1nc(CN(C)CC(F)F)nc(C)c1C(C)C)C2`, the IC50 was at most 100 nM.

Regarding `C=Cc1c(CC)nc(N)nc1N1CCOc2c(C)cc(-c3cnc4sc(N)nc4c3)cc2C1`, the IC50 is at most 100 nM.

Turning to `COCCc1nc(C)c(C(C)C)c(N2CCOc3c(C)cc(-c4cnc(Cl)c(NS(C)(=O)=O)c4)cc3C2)n1`, the IC50 is at most 100 nM.

`Cc1nc(C)c(C(C)C)c(N2CCOc3c(C)cc(-c4cnc5sc(N)nc5c4)cc3C2)n1`: the IC50 was at most 100 nM.

`COCCc1cnc(C)nc1N1CCOc2c(C)cc(-c3cnc4sc(N)nc4c3)cc2C1` registered an IC50 of at most 100 nM.

With `Cc1cc(-c2cnc3sc(N)nc3c2)cc2c1OCCN(c1nc(CNC(C)(C)C)nc(C)c1C(C)C)C2`, the concentration for half-maximal inhibition (IC50) is at most 100 nM.

In turn, `Cc1cc(-c2cnc3sc(N)nc3c2)cc2c1OCCN(c1nc(N)nc(C)c1C)C2` came in with an IC50 of at most 100 nM.

Take `Cc1cc(-c2cnc3sc(N)nc3c2)cc2c1OCCN(c1nc(N)ncc1C(F)(F)F)C2`: the half-inhibitory concentration (IC50) was at most 100 nM.

Consider `CC(=O)c1c(C)ncnc1N1CCOc2c(C)cc(-c3cnc4sc(N)nc4c3)cc2C1`, for which the IC50 was at most 100 nM.

`CCN(Cc1nc(C)c(C(C)C)c(N2CCOc3c(C)cc(-c4cnc5nc[nH]c5c4)cc3C2)n1)CC(F)F` showed an IC50 of at most 100 nM.

`Cc1ncc(C)c(N2CCOc3c(C)cc(-c4nnc(N)s4)cc3C2)n1` showed an IC50 of 100 to 500 nM.

`Cc1cc(-c2cnc(Cl)c(NS(C)(=O)=O)c2)cc2c1OCCN(c1nc(C(=O)NCCN(C)C)nc(C)c1C(C)C)C2` had an IC50 of at most 100 nM.

As for `Cc1cc(-c2cnc3sc(N)nc3c2)cc2c1OCCN(c1nc(N)c(C#N)c(C)c1C#N)C2`, the IC50 was at most 100 nM.

Consider `Cc1cc(-c2cccc(O)c2)cc2c1OCCN(c1nc(N)nc(C)c1C(C)C)C2`, for which the IC50 was at most 100 nM.

Consider `Cc1cc(-c2cnc(N)c(S(N)(=O)=O)c2)cc2c1OCCN(c1nc(N)nc(C)c1C(C)C)C2`, for which the IC50 is at most 100 nM.

Compound `Cc1cc(-c2cnc3sc(N)nc3c2)cc2c1OCCN(c1nccc(N)n1)C2` yielded an IC50 of 100 to 500 nM.

The compound `CCc1cnc(CN(C)C)nc1N1CCOc2c(C)cc(-c3cnc4sc(N)nc4c3)cc2C1` yielded an IC50 of at most 100 nM.

Take `C=CCc1c(C)nc(N)nc1N1CCOc2c(C)cc(-c3cnc4sc(N)nc4c3)cc2C1`: the IC50 was at most 100 nM.

Turning to `CCc1c(Cl)nc(CN(C)C)nc1N1CCOc2c(C)cc(-c3cnc4sc(N)nc4c3)cc2C1`, the IC50 was at most 100 nM.

`Cc1cc(-c2cncc(NS(C)(=O)=O)c2)cc2c1OCCN(c1nc(N)nc(C)c1C(C)C)C2`: the IC50 was at most 100 nM.

For `Cc1cnc(N)nc1N1CCOc2c(C)cc(-c3nnc(N)s3)cc2C1`, the half-maximal inhibitory concentration (IC50) is at most 100 nM.

Regarding `Cc1cc(-c2nnc(N)s2)cc2c1OCCN(c1nc(N)nc(C)c1C(C)C)C2`, the half-maximal inhibitory concentration (IC50) was at most 100 nM.

Consider `CCc1nc(CN(C)C)nc(N2CCOc3c(C)cc(-c4cnc5sc(N)nc5c4)cc3C2)c1CC`, for which the IC50 is at most 100 nM.

As to `Cc1cc(-c2cnc3sc(N)nc3c2)cc2c1OCCN(c1nc(N)c(C#N)cc1C#N)C2`, the IC50 is at most 100 nM.

On to `Cc1nc(N)nc(N2CCOc3ccc(-c4cnc5sc(N)nc5c4)cc3C2)c1C(C)C`, for which the IC50 was at most 100 nM.

On to `C=Cc1c(Cl)nc(N)nc1N1CCOc2c(C)cc(-c3cnc4sc(N)nc4c3)cc2C1`, for which the IC50 was at most 100 nM.

For `Cc1cc(-c2cccc(C(N)=O)c2)cc2c1OCCN(c1nc(N)nc(C)c1C(C)C)C2`, the IC50 was in the range of 100 to 500 nM.

Compound `Cc1cc(-c2cnc3sc(N)nc3c2)cc2c1OCCN(c1nc(C(F)F)nc(C)c1C(C)C)C2` displayed an IC50 of at most 100 nM.

The compound `CCCc1c(C)nc(N)nc1N1CCOc2c(C)cc(-c3cnc4sc(N)nc4c3)cc2C1` yielded an IC50 of at most 100 nM.

`Cc1cc(-c2cnc3sc(N)nc3c2)cc2c1OCCN(c1ncccc1C(N)=O)C2` showed an IC50 of 100 to 500 nM.

`Cc1cc(-c2cnc3sc(N)nc3c2)cc2c1OCCN(c1nc(CF)nc(C)c1C(C)C)C2` showed an IC50 of at most 100 nM.

In the case of `Cc1cc(-c2cnc3sc(N)nc3c2)cc2c1OCCN(c1nccnc1C#N)C2`, the half-maximal inhibitory concentration (IC50) fell in the range of 100 to 500 nM.

`Cc1cc(-c2cnc3sc(N)nc3c2)cc2c1OCCN(c1nc(N)ncc1C(C)C)C2` yielded an IC50 of at most 100 nM.

`Cc1cc(-c2cnc(N)nc2)cc2c1OCCN(c1nc(N)nc(C)c1C(C)C)C2` gave an IC50 of at most 100 nM.

In the case of `Cc1cc(-c2cnn(C)c2)cc2c1OCCN(c1nc(N)nc(C)c1C(C)C)C2`, the IC50 lay within 100 to 500 nM.

On to `CNC(=O)c1sc(N2CCOc3c(C)cc(-c4cnc(Cl)c(NS(C)(=O)=O)c4)cc3C2)nc1C(C)C`, for which the concentration for half-maximal inhibition (IC50) fell in the range of 100 to 500 nM.

With `Cc1cc(-c2ccnc(F)c2)cc2c1OCCN(c1nc(N)nc(C)c1C(C)C)C2`, the concentration for half-maximal inhibition (IC50) is at most 100 nM.

On to `Cc1nc2ccc(-c3cc(C)c4c(c3)CN(c3nc(N)nc(C)c3C(C)C)CCO4)cc2[nH]1`, for which the 50% inhibitory concentration (IC50) was at most 100 nM.

In turn, `Cc1cc(-c2nnc(N)s2)cc2c1OCCN(c1nc(N)ncc1C(C)C)C2` showed an IC50 of at most 100 nM.

`CCN(Cc1nc(C)c(C(C)C)c(N2CCOc3c(C)cc(-c4nnc(N)s4)cc3C2)n1)CC(F)F` came in with an IC50 of at most 100 nM.

Consider `CCN(CC)Cc1nc(C)c(C(C)C)c(N2CCOc3c(C)cc(-c4cnc5sc(N)nc5c4)cc3C2)n1`, for which the IC50 is at most 100 nM.

In turn, `CCc1c(C)nc(CN(C)C)nc1N1CCOc2c(C)cc(-c3cnc4sc(N)nc4c3)cc2C1` registered an IC50 of at most 100 nM.

`Cc1cc(-c2cnc3sc(N)nc3c2)cc2c1OCCN(c1nc(N)nc(Cl)c1C(C)C)C2`: the IC50 was at most 100 nM.

With `Cc1cc(-c2cnc3sc(N)nc3c2)cc2c1OCCN(c1nc(CN3CCCC3)nc(C)c1C(C)C)C2`, the IC50 was at most 100 nM.

As to `Cc1cc(-c2cnc3sc(N)nc3c2)cc2c1OCCN(c1nc(C(O)C(F)(F)F)nc(C)c1C(C)C)C2` (stereo not drawn), the IC50 was at most 100 nM.

On to `CNc1nc(-c2cc(C)c3c(c2)CN(c2nc(N)nc(C)c2C(C)C)CCO3)cs1`, for which the IC50 was in the range of 100 to 500 nM.

In the case of `Cc1cc(-c2cnc3sc(N)nc3c2)cc2c1OCCN(c1nc(CN3CCCC3)ncc1C(C)C)C2`, the IC50 was at most 100 nM.

Turning to `Cc1cc(-c2cn(C)nc2C)cc2c1OCCN(c1nc(N)nc(C)c1C(C)C)C2`, the IC50 is at most 100 nM.

As for `Cc1nc2c(c(N3CCOc4c(C)cc(-c5cnc6sc(N)nc6c5)cc4C3)n1)CC(C)(C)CC2`, the IC50 is at most 100 nM.

Consider `Cc1cc(-c2nnc(N)s2)cc2c1OCCN(c1nc(CN(C)CC(F)F)nc(C)c1C(C)C)C2`, for which the IC50 is at most 100 nM.

`Cc1cnccc1N1CCOc2c(C)cc(-c3cnc4sc(N)nc4c3)cc2C1` displayed a 50% inhibitory concentration (IC50) of at most 100 nM.

In turn, `Cc1cc(-c2nnc(N)s2)cc2c1OCCN(c1nc(N)nc(C)c1C)C2` registered an IC50 of at most 100 nM.

In turn, `C=Cc1c(C)nc(N)nc1N1CCOc2c(C)cc(-c3nnc(N)s3)cc2C1` had an IC50 of at most 100 nM.

`C#Cc1c(C)nc(N)nc1N1CCOc2c(C)cc(-c3cnc4sc(N)nc4c3)cc2C1` displayed an IC50 of at most 100 nM.

Compound `Cc1cc(-c2cnc3sc(N)nc3c2)cc2c1OCCN(c1nc([C@@H]3CC(F)(F)CN3)nc(C)c1C(C)C)C2` displayed an IC50 of at most 100 nM.

`COCc1c(C)nc(C)nc1N1CCOc2c(C)cc(-c3cnc4sc(N)nc4c3)cc2C1` came in with an IC50 of at most 100 nM.

`CCc1c(Cl)nc(N)nc1N1CCOc2c(C)cc(-c3cnc4sc(N)nc4c3)cc2C1` displayed a concentration for half-maximal inhibition (IC50) of at most 100 nM.

Turning to `Cc1cc(-c2cnc3sc(N)nc3c2)cc2c1OCCN(c1nc(CN(C)C(C)(C)C)nc(C)c1C(C)C)C2`, the IC50 was at most 100 nM.

In turn, `Cc1cc(-c2cnc3sc(N)nc3c2)cc2c1OCCN(c1nc([S+](C)[O-])nc(C)c1C(C)C)C2` (stereo not drawn) registered an IC50 of at most 100 nM.

In the case of `Cc1cc(-c2cnc3sc(N)nc3c2)cc2c1OCCN(c1nc(CNCC(F)(F)F)nc(C)c1C(C)C)C2`, the IC50 is at most 100 nM.

As to `Cc1cc(-c2ccncc2)cc2c1OCCN(c1nc(N)nc(C)c1C(C)C)C2`, the IC50 was at most 100 nM.

Regarding `Cc1cc(-c2cnc3sc(N)nc3c2)cc2c1OCCN(c1nc(CN(C)C)ncc1C(C)C)C2`, the IC50 was at most 100 nM.

For `Cc1cc(-c2cnc3sc(N)nc3c2)cc2c1OCCN(c1ncnc(Cl)c1C(C)C)C2`, the IC50 was at most 100 nM.

As to `Cc1cc(-c2cnc3sc(N)nc3c2)cc2c1OCCN(c1ncc(C(F)(F)F)c(N)n1)C2`, the IC50 is 100 to 500 nM.

`Cc1cc(-c2cnc3sc(N)nc3c2)cc2c1OCCN(c1ncnc3c1CC(C)(C)C=C3)C2` showed an IC50 of at most 100 nM.

The compound `Cc1ncc(C(C)C)c(N2CCOc3c(C)cc(-c4nnc(N)s4)cc3C2)n1` gave an IC50 of at most 100 nM.

Compound `Cc1cc(-c2cnc3sc(N)nc3c2)cc2c1OCCN(c1nc(CC#N)nc(C)c1C(C)C)C2` gave an IC50 of at most 100 nM.

For the compound `Cc1nc2cc(-c3cc(C)c4c(c3)CN(c3nc(N)nc(C)c3C(C)C)CCO4)cnc2[nH]1`, the IC50 is at most 100 nM.

Take `C=Cc1c(C)nc(N)nc1N1CCOc2c(C)cc(-c3cnc4sc(N)nc4c3)cc2C1`: the IC50 was at most 100 nM.

Consider `Cc1cc(-c2cnc3sc(N)nc3c2)cc2c1OCCN(c1ncnc3c1CC[C@H](C)C3)C2`, for which the concentration for half-maximal inhibition (IC50) is at most 100 nM.

`COc1cc(-c2cnc3sc(N)nc3c2)cc2c1OCCN(c1nc(N)nc(C)c1C(C)C)C2` showed an IC50 of at most 100 nM.

`Cc1cc(-c2nnc(N)s2)cc2c1OCCN(c1nc(CNCC(F)F)nc(C)c1C(C)C)C2` registered a half-inhibitory concentration (IC50) of at most 100 nM.

Take `COc1nc(C)c(C(C)C)c(N2CCOc3c(C)cc(-c4cnc5sc(N)nc5c4)cc3C2)n1`: the IC50 is at most 100 nM.
